Laboratory results published in ChEMBL document CHEMBL1127549, “Synthesis and delta-opioid receptor antagonist activity of a naltrindole analogue with a regioisomeric indole moiety” (J Med Chem, 1994).

Columns and labels:
[1] = molecular target: Delta-type opioid receptor (Mus musculus, UniProt P32300); test: Antagonist activity against delta-opioid receptor in mouse vas deferens in the presence of DADLE; format: functional, tissue-based
[2] = molecular target: T1, Kappa-type opioid receptor (Cavia porcellus, UniProt P41144); test: Antagonist activity against kappa-opioid receptor in guinea pig ileum in the presence of ethylketazocine; format: functional, tissue-based
T1 sequence (P41144 whole entry): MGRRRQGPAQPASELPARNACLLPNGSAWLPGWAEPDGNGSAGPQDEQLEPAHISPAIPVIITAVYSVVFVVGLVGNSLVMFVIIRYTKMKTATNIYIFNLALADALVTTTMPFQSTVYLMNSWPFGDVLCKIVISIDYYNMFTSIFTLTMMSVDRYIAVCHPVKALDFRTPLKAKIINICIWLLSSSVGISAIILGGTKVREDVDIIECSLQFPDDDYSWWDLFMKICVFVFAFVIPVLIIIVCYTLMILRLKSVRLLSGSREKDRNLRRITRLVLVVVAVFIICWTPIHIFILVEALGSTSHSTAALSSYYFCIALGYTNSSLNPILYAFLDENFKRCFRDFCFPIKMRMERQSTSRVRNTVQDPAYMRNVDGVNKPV

Mu-type opioid receptor [3] = molecular target: T2, Mu-type opioid receptor (Cavia porcellus, UniProt P97266); test: Antagonist activity against mu-opioid receptor in guinea pig ileum in the presence of morphine; format: functional, tissue-based
T2 sequence (P97266 whole entry): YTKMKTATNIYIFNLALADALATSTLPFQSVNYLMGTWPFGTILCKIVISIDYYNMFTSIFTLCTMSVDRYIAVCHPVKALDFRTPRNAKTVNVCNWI

[4] = molecular target: T1, Kappa-type opioid receptor; test: Binding affinity against kappa-opioid receptor in guinea pig brain membranes; format: cell membranes, Membrane
Mu-type opioid receptor [5] = molecular target: T2, Mu-type opioid receptor; test: Binding affinity against mu-opioid receptor in guinea pig brain membranes; format: cell membranes, Membrane

Sequence of Delta-type opioid receptor (P32300 whole entry): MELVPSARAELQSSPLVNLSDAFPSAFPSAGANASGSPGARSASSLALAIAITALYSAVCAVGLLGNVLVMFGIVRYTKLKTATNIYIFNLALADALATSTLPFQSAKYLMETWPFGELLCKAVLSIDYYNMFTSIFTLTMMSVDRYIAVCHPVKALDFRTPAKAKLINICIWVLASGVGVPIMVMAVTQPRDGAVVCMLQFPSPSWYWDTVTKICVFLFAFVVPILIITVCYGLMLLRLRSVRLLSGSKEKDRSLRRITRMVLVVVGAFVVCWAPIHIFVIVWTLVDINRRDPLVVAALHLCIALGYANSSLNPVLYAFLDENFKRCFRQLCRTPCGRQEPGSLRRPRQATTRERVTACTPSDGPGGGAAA

| Compound | IC50 [1] [nM] | IC50 [2] [nM] | IC50 (Mu-type opioid receptor [3]) [nM] | Ki [4] [nM] | Ki (Mu-type opioid receptor [5]) [nM] |
| --- | --- | --- | --- | --- | --- |
| CN1CC[C@]23c4c5ccc(O)c4O[C@H]2Cc2c([nH]c4ccccc24)[C@H]3[C@H]1C5 | 1000 | 990 | 920 |  |  |
| Oc1ccc2c3c1O[C@H]1Cc4c([nH]c5ccccc45)[C@H]4[C@@H](C2)N(CC2CC2)CC[C@]314 | 8200 |  |  | 33 | 4.9 |
| Oc1ccc2c3c1O[C@H]1c4[nH]c5ccccc5c4C[C@@]4(O)[C@@H](C2)N(CC2CC2)CC[C@]314 [NALTRINDOLE] | 459000 | 2000 | 11200 |  |  |
